Like-named read-outs stand apart in the source and are kept apart here.
Experiments:
[1] = system: Pim-1 stably transfected U2OS human osteogenic sarcoma line; test: Pim cell assay U2OS (phospho-BAD normalized against total BAD), Pim-1 transfected; type: cell-based
Protocol: (§1) The cell lines used in the assay were generated by the stable transfection of either Pim-1 or Pim-2 into the U2OS human osteogenic sarcoma line. The assay for determination of the Pim activity in the engineered U2OS cell lines measures levels of phospho-BAD normalized against total BAD protein levels. It was conducted as follows:
(§2) The adherent cells were dissociated from the flasks using non-enzymatic cell dissociation solution (Sigma #C5914). […] The cells were then incubated overnight at 37° C., 5% CO2.
(§3) In addition to the 10-point dosing curve of the test compound, DMSO alone was run as the high control.
(§4) This dilution in DMSO was then diluted again into cell growth medium. Aliquots (12 μL) of the compound diluted in growth medium were then transferred to the appropriate wells of the 96-well plates containing cells to a final DMSO concentration of 0.3%. The cell plates were then incubated with compound for 29 min at 37° C., 5% CO2.
(§5) The cell plates containing lysis buffer were then immediately stored at −70° C.
(§6) These prepared lysates were then assayed for phospho and total BAD according to the manufacturer's protocols (Meso Scale Diagnostics, Cat#K15103C-3 & #K15103D-3). The plates were read on the MSD Sector Imager 6000, and results were calculated according to the assay protocols ((% Phosphoprotein=((2×Phospho signal)/(Phospho signal+Total signal))×100)).

[2] = target: full length recombinant Pim-2 (Homo sapiens (Human), UniProt Q9P1W9); test: Pim enzyme assay (HTRF, phosphorylation of biotinylated-BAD (S112) peptide), Pim-2; type: biochemical; conditions: read-out: Pim2_IC50
[3] = target: full length recombinant Pim-3 (Homo sapiens (Human), UniProt Q86V86); test: Pim enzyme assay (HTRF, phosphorylation of biotinylated-BAD (S112) peptide), Pim-3; type: biochemical; conditions: read-out: Pim3 IC50
Method in brief: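 IC50 values were fitted with a 4-parameter logistic model to percent-of-control HTRF signal (Eu anti-phospho-BAD S112 antibody/streptavidin-APC). Reactions used full-length Pim-3 and biotin-BAD (S112) peptide, ran 1 h 30 min at RT (22 °C) in Hepes pH 7.0 buffer with BSA and DTT, and were stopped by 3 mM EDTA.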

[4] = target: full length recombinant Pim-1 (Homo sapiens (Human), UniProt P11309); test: Pim enzyme assay (HTRF, phosphorylation of biotinylated-BAD (S112) peptide), Pim-1; type: biochemical
[5] = system: Pim-2 stably transfected U2OS human osteogenic sarcoma line; test: Pim cell assay U2OS (phospho-BAD normalized against total BAD), Pim-2 transfected; type: cell-based; conditions: read-out: U2OS Pim2_Cell_IC50
Protocol: as §1, §2, §3, §4, §5, §6

[6] = Homo sapiens, U2OS, read-out: U2OS Pim1_Cell_IC50
[7] = Pim-1 enzyme assay, read-out: Pim_1_IC50
[8] = Homo sapiens, U2OS cells, Pim-2 transfected
[9] = Homo sapiens, U2OS, read-out: U2OS Pim1_Cell_IC50, U2OS cells, Pim-1 transfected

Sequence of full length recombinant Pim-2 (Q9P1W9 whole entry): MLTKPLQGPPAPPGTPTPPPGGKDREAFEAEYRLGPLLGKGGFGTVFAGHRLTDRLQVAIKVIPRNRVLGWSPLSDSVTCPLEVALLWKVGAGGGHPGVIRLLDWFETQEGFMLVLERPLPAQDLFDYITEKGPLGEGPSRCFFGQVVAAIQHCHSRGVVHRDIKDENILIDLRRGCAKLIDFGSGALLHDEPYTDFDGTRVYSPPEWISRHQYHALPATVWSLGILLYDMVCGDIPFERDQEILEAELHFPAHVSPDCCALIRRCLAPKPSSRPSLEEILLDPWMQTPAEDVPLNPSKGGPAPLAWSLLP
Sequence of full length recombinant Pim-1 (P11309 whole entry): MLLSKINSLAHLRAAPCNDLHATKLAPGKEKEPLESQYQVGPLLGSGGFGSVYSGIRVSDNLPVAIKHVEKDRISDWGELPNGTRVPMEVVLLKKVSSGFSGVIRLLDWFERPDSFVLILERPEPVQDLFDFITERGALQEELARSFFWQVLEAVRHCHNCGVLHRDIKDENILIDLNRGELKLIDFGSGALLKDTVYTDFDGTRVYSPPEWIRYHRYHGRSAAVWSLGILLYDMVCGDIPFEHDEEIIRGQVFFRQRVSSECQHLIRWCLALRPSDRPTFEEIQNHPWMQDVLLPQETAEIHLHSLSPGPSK

Compound | IC50 [1, 6] [nM] | IC50 ([2]; Pim-2 enzyme assay) [nM] | IC50 ([3]; Pim-3 enzyme assay) [nM] | IC50 [4, 7] [nM] | IC50 [5, 8] [nM] | other results
C[C@@H]1CCCN(c2cccc(-c3c[nH]c4ccc(-c5nnc(N)s5)cc34)n2)C1 (stereo in doubt) [Example 174, 5-(3-(6-(3-methyl-1-piperidinyl)-2-pyridinyl)-1H-indol-5-yl)-1,3,4-thiadiazol-2-amine] | 998 | 159 | 23.6 | 41 | – | –
CC1COCCN1c1nnc(-c2ccc3[nH]cc(-c4cncc(C5CC5)n4)c3c2)o1 (stereo in doubt) [Example 249, 3-(6-cyclopropyl-2-pyrazinyl)-5-(5-((3R)-3-methyl-4-morpholinyl)-1,3,4-oxadiazol-2-yl)-1H-indole] | – | 48.9 | – | 16.1 | – | IC50 ([1]; read-out: U2OS Pim1_Cell_IC50, U2OS cells, Pim-1 transfected): 375 nM; IC50 ([5]; U2OS cells, Pim-2 transfected): > 31600 nM
CC[C@@H]1COCCN1c1nnc(-c2ccc3[nH]cc(-c4cncc(C5CC5)n4)c3c2)o1 (stereo in doubt) [Example 252, 3-(6-cyclopropyl-2-pyrazinyl)-5-(5-(3-ethyl-4-morpholinyl)-1,3,4-oxadiazol-2-yl)-1H-indole] | 310 | 29.8 | – | 9.66 | > 31600 | –
NCCCNc1nnc(-c2ccc3[nH]cc(-c4ccccc4F)c3c2)s1 [Example 12, N-(5-(3-(2-fluorophenyl)-1H-indol-5-yl)-1,3,4-thiadiazol-2-yl)propane-1,3-diamine] | 3170 | 155 | 13.7 | 51.6 | – | –
Nc1nnc(-c2ccc3[nH]cc(-c4cccc(NC5CCCC5)n4)c3c2)s1 [Example 16, 5-(3-(6-(cyclopentylamino)pyridin-2-yl)-1H-indol-5-yl)-1,3,4-thiadiazol-2-amine 2,2,2-trifluoroacetate] | – | – | – | – | – | IC50 ([5]; Homo sapiens, U2OS): 3090 nM; IC50 [2]: 21.1 nM
CN1CCN(c2cccc(-c3c[nH]c4ccc(-c5nnc(N)s5)cc34)n2)CC1=O [Example 30, 4-(6-(5-(5-amino-1,3,4-thiadiazol-2-yl)-1H-indol-3-yl)pyridin-2-yl)-1-methylpiperazin-2-one] | – | 52.7 | 2.5 | – | – | IC50 [1, 9]: 1170 nM; IC50 ([4]; read-out: Pim_1_IC50): 13.3 nM
c1cc2[nH]cc(-c3cncc(C4CC4)n3)c2cc1-c1nnc(N2CCCC2)o1 [Example 37, 2-(3-(6-Cyclopropylpyrazin-2-yl)-1H-indol-5-yl)-5-(pyrrolidin-1-yl)-1,3,4-oxadiazole 2,2,2-trifluoroacetate] | – | – | – | 9.14 | – | IC50 [1, 9]: 237 nM; IC50 [2]: 80.1 nM; IC50 [3]: 6.78 nM
CNc1nnc(-c2ccc3[nH]cc(-c4cccc(OC(C)C)n4)c3c2)o1 [Example 41, 5-(3-(6-isopropoxypyridin-2-yl)-1H-indol-5-yl)-N-methyl-1,3,4-oxadiazol-2-amine] | – | – | – | 6.48 | 1320 | IC50 [1, 9]: 124 nM; IC50 [2]: 19.6 nM
c1cc(C2CC2)nc(-c2c[nH]c3ccc(-c4nnc(C5CC5)o4)cc23)n1 [Example 43, 2-cyclopropyl-5-(3-(4-cyclopropylpyrimidin-2-yl)-1H-indol-5-yl)-1,3,4-oxadiazole] | 247 | 4.32 | – | 7.58 | 3390 | –
c1cc2[nH]cc(-c3cncc(C4CC4)n3)c2cc1-c1nnc(C2CC2)o1 [Example 44, 2-Cyclopropyl-5-(3-(6-cyclopropylpyrazin-2-yl)-1H-indol-5-yl)-1,3,4-oxadiazole] | 628 | 26 | – | 9.92 | > 31600 | –
FC(F)(F)CNc1nnc(-c2ccc3[nH]cc(-c4nccc(C5CC5)n4)c3c2)o1 [Example 53, 5-(3-(4-cyclopropylpyrimidin-2-yl)-1H-indol-5-yl)-N-(2,2,2-trifluoroethyl)-1,3,4-oxadiazol-2-amine] | 34.5 | 0.638 | – | 0.407 | 475 | –
CC(C)Nc1cncc(-c2c[nH]c3ccc(-c4nc(N)ns4)cc23)n1 [Example 64, 5-(3-(6-(isopropylamino)pyrazin-2-yl)-1H-indol-5-yl)-1,2,4-thiadiazol-3-amine] | 200 | 58.7 | – | 4.26 | > 10000 | –
Nc1nnc(-c2ccc3[nH]cc(-c4nccc(OCC(F)(F)F)n4)c3c2)o1 [Example 110, 5-(3-(4-(2,2,2-trifluoroethoxy)-2-pyrimidinyl)-1H-indol-5-yl)-1,3,4-oxadiazol-2-amine] | 219 | 2.38 | – | 4.68 | 1630 | –
CN1CCCC(Nc2ccnc(-c3c[nH]c4ccc(-c5nnc(N)o5)cc34)n2)C1 (stereo not drawn) [Example 111, 2-(5-(5-amino-1,3,4-oxadiazol-2-yl)-1H-indol-3-yl)-N-(1-methyl-3-piperidinyl)-4-pyrimidinamine] | > 31600 | 6.59 | – | 18.6 | > 31600 | –
CN1CCCC(Oc2ccnc(-c3c[nH]c4ccc(-c5nnc(N)o5)cc34)n2)C1 (stereo not drawn) [Example 112, 5-(3-(4-((1-methyl-3-piperidinyl)oxy)-2-pyrimidinyl)-1H-indol-5-yl)-1,3,4-oxadiazol-2-amine] | 180 | 2.85 | – | 5.79 | 1160 | –
COC[C@H]1CCCN1c1ccnc(-c2c[nH]c3ccc(-c4nnc(N)o4)cc23)n1 [Example 113, 5-(3-(4-((2R)-2-(methoxymethyl)-1-pyrrolidinyl)-2-pyrimidinyl)-1H-indol-5-yl)-1,3,4-oxadiazol-2-amine] | 380 | 25.7 | – | 13.7 | > 10000 | –
Nc1nnc(-c2ccc3[nH]cc(-c4cncc(-c5ccc(Cl)cc5)n4)c3c2)o1 [Example 114, 5-(3-(6-(4-chlorophenyl)-2-pyrazinyl)-1H-indol-5-yl)-1,3,4-oxadiazol-2-amine] | – | 25.1 | – | 12.6 | > 31600 | IC50 [1, 9]: 137 nM
Nc1nnc(-c2ccc3[nH]cc(-c4cncc(-c5ccccc5Cl)n4)c3c2)o1 [Example 117, 5-(3-(6-(2-chlorophenyl)-2-pyrazinyl)-1H-indol-5-yl)-1,3,4-oxadiazol-2-amine] | – | 57.3 | 21.8 | 16.5 | – | IC50 [1, 9]: 227 nM
Fc1ccccc1-c1c[nH]c2ccc(-c3nnc(NCc4cccc5[nH]ccc45)s3)cc12 [Example 143, 5-(3-(2-fluorophenyl)-1H-indol-5-yl)-N-(1H-indol-4-ylmethyl)-1,3,4-thiadiazol-2-amine] | 5200 | 3020 | 84.5 | 145 | – | –
CC1CCN(c2cccc(-c3c[nH]c4ccc(-c5nnc(N)s5)cc34)n2)CC1 [Example 175, 5-(3-(6-(4-methyl-1-piperidinyl)-2-pyridinyl)-1H-indol-5-yl)-1,3,4-thiadiazol-2-amine] | 682 | 117 | 17.7 | 41.4 | – | –
CN1CCN(c2cnc(-c3c[nH]c4ccc(-c5nnc(N)s5)cc34)cn2)CC1 [Example 178, 5-(3-(5-(4-methyl-1-piperazinyl)-2-pyrazinyl)-1H-indol-5-yl)-1,3,4-thiadiazol-2-amine] | – | 459 | 54.1 | 61.3 | – | IC50 [1, 9]: 2250 nM
Nc1nnc(-c2ccc3[nH]cc(-c4cccc(N5CCCCC5=O)n4)c3c2)s1 [Example 181, 1-(6-(5-(5-amino-1,3,4-thiadiazol-2-yl)-1H-indol-3-yl)-2-pyridinyl)-2-piperidinone] | 2260 | 223 | 47 | 98.1 | – | –
CC(C)Nc1cncc(-c2c[nH]c3ccc(-c4nnc(N)s4)cc23)n1 [Example 206, 6-(5-(5-amino-1,3,4-thiadiazol-2-yl)-1H-indol-3-yl)-N-(1-methylethyl)-2-pyrazinamine] | – | 9.65 | 1.15 | – | 945 | –
Nc1ncc(-c2ccc3[nH]cc(-c4cccc(N5CCOCC5)n4)c3c2)s1 [Example 213, 5-(3-(6-(4-morpholinyl)-2-pyridinyl)-1H-indol-5-yl)-1,3-thiazol-2-amine] | 1520 | 730 | 44.4 | – | – | IC50 [4]: 94.9 nM
c1cc2[nH]cc(-c3cncc(C4CC4)n3)c2cc1-c1nnc(N2CCOCC2)o1 [Example 245, 3-(6-cyclopropyl-2-pyrazinyl)-5-(5-(4-morpholinyl)-1,3,4-oxadiazol-2-yl)-1H-indole] | – | – | – | 20.3 | > 31600 | IC50 [1, 9]: 217 nM

— patent publication US9321756B2, “Azole compounds as PIM inhibitors” (priority 2011, dated 2016)
